System: H. pylori
Test: Level of H. pylori colonisation in gastric body, transitional zone and antrum of inoculated mice, counted on Giemsa stained sections
Assay type: in vivo, Helicobacter pylori
Conditions: Example 6; N-acetyl cysteine alone; FIGS. 3, 4
Procedure: Female C57BL/6 mice, approximately six week old, were orally inoculated with Sydney strain 1 (SS1) of H. pylori (1.0×10^8 bacteria delivered in 0.1 ml of 0.9% (w/v) sodium chloride) according to Lee et al., (1997) Gastroenterology 112:1386-1397 (the entire disclosure of which is incorporated herein by reference) and treated twice daily by oro-gastric gavage for 21 days, starting 4 weeks after inoculation (Scheme 1 below). Animals were housed in the Animal House at the Women's and Children's Hospital. All animals were fed mouse chow and water ad libitum. [drawing 1] […]
The level of colonisation in the gastric body, transitional zone and antrum of mice inoculated with H. pylori was counted in 9-12 consecutive fields on Giemsa stained sections.
To assess the effect of the mucolytic agent N-acetyl cysteine […] on colonisation, the level of colonisation in the gastric body, transitional zone and antrum in mice inoculated with H. pylori was counted in 9-12 consecutive fields on Giemsa stained sections.
The level of colonisation in the gastric body, transitional zone and antrum in mice inoculated with H. pylori was counted in 9-12 consecutive fields on Giemsa stained sections.
Colonisation (Giemsa staining): The level of colonisation in the gastric body, transitional zone and antrum was counted in 9-12 consecutive fields on stained sections. […]

## CC(=O)N[C@@H](CS)C(=O)O [NAC, N-acetyl cysteine]
  level of colonisation: no effect
